One molecule from patent US20060278218A1, “Non-invasive restrained whole body plethysmography for measurement of airway function in conscious mice” (priority 2005, published 2006) can be followed below.

“And” between values parts separate entries of the source, which are not always exact repeats. Identical values can stand only once. Marks after values point to notes of the source that are not given here.

What all share (format): in vivo, mouse
Assay [1] concerns anesthetized, tracheotomized mice. The experiment in a line: Methacholine challenge in anesthetized mice using forced oscillation technique (FOT). The settings on record: for Raw ED175: provocative concentration increasing Raw-FOT to 175% baseline, mean. As to the method:
The methods for FOT have been previously described in Tomioka, S., J. H. Bates, et al. (2002). “Airway and tissue mechanics in a murine model of asthma: alveolar capsule vs. forced oscillations.” J Appl Physiol 93(1): 263-70. (hereinafter Tomioka, et al.), incorporated herein by reference. Mice were anesthetized with ketamine (50 mg/kg) and xylazine (5 mg/kg) (Butler Co, Dublin, Ohio) intra-peritoneally, and a tracheostomy performed with a 19 g cannula (Becton Dickinson and Company Franklin Lakes, N.Y.). Mice were paralyzed with pancuronium (1 mg/ml, Baxter Healthcare Corp. Irvine, Calif.). Supplemental xylazine and ketamine (½ doses) were provided every ½ hour. Ventilation was set at frequency of 200 BPM, VT 0.3 ml, positive end-expiratory pressure (PEEP) 3.0 cm H20, and oxygen was supplemented throughout. Repeated measurements were performed with a commercial data acquisition system for input impedance between 1-20 Hz (Quick Prime 3 analyzer, FlexiVent System, SCIREQ Corp, Montreal, Quebec). A constant phase model (Gomes, R. F., X. Shen, et al. (2000). “Comparative respiratory system mechanics in rodents.” J Appl Physiol 89(3): 908-16 (hereinafter Gomes, et al.)., incorporated herein by reference) was employed to obtain airway resistance Raw, tissue resistance coefficient Gti, and tissue elastance coefficient Hti.
Aerosols were delivered directly into the tracheal cannula during lung inflation during mechanical ventilation (flexiVent, Scireq Corp, Montreal, Quebec). Ten second nebulization periods were used, followed immediately by a series (8-15) of measurements. Prior to each measurement of lung mechanics, the lung was inflated to total lung capacity (TLC) (30 cm H2O airway pressure). Forced oscillations during apnea (3 seconds in duration) were applied every 17 seconds for 5 minutes. Dosage ranges were pre-determined in pilot studies to evoke between 10 and >75% increase in airway resistance (Raw). Methacholine in C57 mice was delivered at 0 (saline), 4, 8, and 16 mg/mL, and in AJ we used 0, 2, 4, and 8 mg/mL. The concentration of methacholine that provoked an increase in Raw-FOT to 175% baseline (ED 175) was determined by log-linear interpolation as described above.

For assay [2], the system named is conscious mice. Kind of assay: Methacholine aerosol challenge in conscious mice, double chamber plethysmography (DCP). The settings on record: BALBc (pre-OVA) mice, n=8; provocative concentration increasing sRaw to 175% post-saline value; mean. As to the method:
The double chamber plethysmograph was purchased from a commercial source (PLY3351, Buxco Electronics Inc, Wilmington, N.C.). The techniques for measurement with this technique have been described previously (DeLorme, et al. and Flandre, et al.). The flow for each chamber (nasal and thoracic) of the DCP was calibrated separately by rapid injection of a known volume (0.5 mL) into the chamber; volume was matched by the integration of flow. The accuracy of calibration was checked before each test. The phase lag between the chambers was negligible (<0.01 msec up to 10 Hz). For DCP, mice were loaded into the rear of the thoracic chamber and pushed forward until the head protruded through a hole in a latex neck seal provided with the equipment. […] Computation of sRaw measured with DCP (hereinafter sRaw-DCP) followed protocols established by Pennock, et al. and later applied to mice by Flandre, et al, whereby the time lag (dT) between the thoracic and nasal flow at zero crossing (during transition between inspiration and expiration) was utilized as follows: sRaw−DCP=(Ti+Te)/(2π)×(Patm−47)×1.36 2×π×dT/(Ti+Te), Equation 2: where Ti and Te equal inspiratory and expiratory time (sec) and Patm atmospheric pressure (cm H2O). The peak dT was identified and 10 sequential breaths free from movement artifacts were measured for that period. […]

Assay [3] deals with conscious mice. The experiment in a line: Methacholine aerosol challenge in conscious mice, restrained whole body plethysmography (RWBP). As to conditions: for sRaw-RWBP ED175: mean; for average sRaw: one C57BL/6 mouse. From the text: The dynamic properties of the plethysmograph were studied by varying pressures in the chamber (John, J., B. Drefeldt, et al. (1994). “Dynamic properties of body plethysmographs and effects on physiological parameters.” J Appl Physiol 77(1): 152-9. (hereinafter John, et al.), incorporated herein by reference). A leak (3.2 sec to 36% peak pressure) was created by a Luer connector mounted in the wall of the box, which was attached to a length of tubing, a stopcock and needle (22 g, 2 cm). The leak resistance was measured to be 5.37 cm H2O/L/sec and inertance 0.029 s^2/mL. A step pressure created by (a) hammering gently the plunger of a syringe loaded to an expected volume (0.02 mL), and (b) balloon burst both peaked between 19-21 msec, with a thermal time constant (described by a single compartment) of 0.95 sec. Amplitude was examined as a function of input frequency using digitally controlled square and sinusoidal flows delivered with a piston-driven mouse ventilator (flexiVent, Scireq Corp, Montreal, Canada). Box pressure amplitude remained within 3% of the delivered volume (0.1 mL) from 1-10 Hz, and within 0.075% between 2 and 5 Hz, the range most relevant to breathing in conscious mice. Therefore the conditions were adiabatic across these frequencies. Time shifts between flow, delivered via the pneumotachograph within the box, and peak box pressure averaged less than 3 msec (range 1-6 msec) from 0.5-20 Hz generated using a broadband input generator (flexiVent, Scireq Corp). Pressure in the plethysmographic chamber was sampled differential pressure transducer 20 (TRD 5700, Buxco Electronics, Wilmington, N.C.) referenced to the atmospheric reference chamber 18 The pneumotachograph 52 (8431 Series, Hans Rudolph, Kansas City, Mo.) heated to 38-39° C. measured flow and flow-derived parameters. Data was sampled at 2500 Hz per channel using commercial hardware (Max1420 Buxco Electronics, PCI 6024E, National Instruments) and software (Biosystem XA version 2.9.4, Buxco Electronics, Inc). The pneumotachograph was calibrated by integration of the flow, injected as a known volume (0.5 mL). Box volume was calibrated by rapid injection of a known volume (0.1 mL) into the chamber between each mouse, and checked repeatedly using injections of varying volumes and quasi-sinusoidal inputs. Bias flow (0.5 L/min) was employed between recordings, and the box vented fully between methacholine challenges.
FIGS. 9A-9D are box volume-flow plots for the experiments performed using an RWBP according to the invention. Primary waveforms (box volume, flow) are reviewed and period of peak responses based on EF50 are identified. These occurred regularly between 1.5-2.5 minutes after exposure to methacholine. FIGS. 9A-9D have a stripchart for pneumotachograph flow and plethysmographic volume. Below the stripcharts are corresponding X-Y plots of flow (Y-axis) and box volume shift (X-axis). A slope (θ) of the box volume-flow plot was measured using a protractor (accurate to 0.5 degrees) on the straightest possible segment between −1 to 1 mL/sec. Angles are measured at the transition from expiration to inspiration to minimize the contribution of heating and humidification to the box volume signal (see Agrawal K P). Gains were set to produce angles (tangents) between 40 and 75 degrees. Breaths with evidence of laryngeal braking are avoided. Specific airway resistance (sRaw) is computed from the plots as follows: sRaw=(1/tan θ)*(Patm−PH2O)*Cf*(Vbox−bwt mouse)/Vbox, Equation 1: where Patm is atmospheric pressure, PH2O is water vapor pressure, Cf is a scaling factor for X and Y axes, Vbox is volume of the outer chamber, and bwt mouse is the weight of the mouse in units of grams.
Challenges were conducted at the same time of day (morning or afternoon) for each mouse. Ambient temperatures in the laboratory ranged from 21-23° C. and humidity ranged from 25-45%. Baseline recordings were obtained after 2 min acclimation to the chamber. […]

Take `CC(=O)OC(C)C[N+](C)(C)C` (centres unmarked) [methacholine]: the “Raw ED175” value in assay [1] (AJ mice, n=18) was 2.3^a mg/mL; in assay [1] (BALBc (pre-OVA) mice), 9.48 mg/mL; in assay [1] (C57 mice, n=18), 8.3 mg/mL. For the same molecule, in assay [1] (anesthetized, tracheotomized C57, AJ and BALBc mice, all 3 strains (FIG. 11)), the “change in Raw” value was “dose-dependent increase”. In assay [2], the “sRaw-DCP ED175” value is recorded as 7.1^a mg/mL. Also, the “sRaw-RWBP ED175” value in assay [3] (AJ mice, n=18, provocative concentration increasing sRaw to 175% post-saline value) is 4.49^a,b mg/mL; in assay [3] (BALBc (no OVA) mice, n=18, provocative concentration increasing sRaw to 175% post-saline value), 10.9^a mg/mL; in assay [3] (BALBc (post-OVA) mice, n=8, 48 hrs following allergen challenge in sensitized group), 5.0 mg/mL and 5.0^a,c mg/mL; in assay [3] (BALBc (pre-OVA) mice, n=8, prior to sensitization and aerosol exposure to ovalbumin) it was 9.2 mg/mL and 9.2^ mg/mL; in assay [3] (C57 mice, n=18, provocative concentration increasing sRaw to 175% post-saline value), 40.5^b mg/mL. The “change in tidal volume” value in assay [3] (conscious C57, AJ and BALBc mice, any strain (FIG. 10C)) is recorded as “no change”. In addition, the “change in sRaw-RWBP” value in assay [3] (conscious C57, AJ and BALBc mice, dose response (FIG. 10A)) is on record as “significant dose-dependent increase”. The “change in respiratory frequency” value in assay [3] (conscious C57, AJ and BALBc mice, dose response (FIG. 10B)) is listed as “significant decrease”. In addition, the results for the “average sRaw” value in assay [3] (methacholine aerosol dose 10 mg/mL (FIG. 9B)), in assay [3] (methacholine aerosol dose 50 mg/mL (FIG. 9C)) and in assay [3] (methacholine aerosol dose 100 mg/mL (FIG. 9D)) were 0.75 cm·s, 0.86 cm·s and 1.61 cm·s, respectively. In addition, the “period of peak responses based on EF50 after exposure” value in assay [3] (time after exposure to methacholine) lay within 1.5 to 2.5 min.
